Test results reported in patent US12384770B2, “Heterocyclic compound” (Takeda Pharmaceutical Company Limited, priority 2019, dated 2025).

Molecular target: T1, HDAC6 enzyme (Homo sapiens, UniProt Q9UBN7)
T1 construct: HDAC6 enzyme prepared by transducing full length HDAC6 gene into Sf-9 insect cells; GST; purchased SignalChem; host or cells: Sf-9 insect cells
T1 sequence (Q9UBN7 1-1215): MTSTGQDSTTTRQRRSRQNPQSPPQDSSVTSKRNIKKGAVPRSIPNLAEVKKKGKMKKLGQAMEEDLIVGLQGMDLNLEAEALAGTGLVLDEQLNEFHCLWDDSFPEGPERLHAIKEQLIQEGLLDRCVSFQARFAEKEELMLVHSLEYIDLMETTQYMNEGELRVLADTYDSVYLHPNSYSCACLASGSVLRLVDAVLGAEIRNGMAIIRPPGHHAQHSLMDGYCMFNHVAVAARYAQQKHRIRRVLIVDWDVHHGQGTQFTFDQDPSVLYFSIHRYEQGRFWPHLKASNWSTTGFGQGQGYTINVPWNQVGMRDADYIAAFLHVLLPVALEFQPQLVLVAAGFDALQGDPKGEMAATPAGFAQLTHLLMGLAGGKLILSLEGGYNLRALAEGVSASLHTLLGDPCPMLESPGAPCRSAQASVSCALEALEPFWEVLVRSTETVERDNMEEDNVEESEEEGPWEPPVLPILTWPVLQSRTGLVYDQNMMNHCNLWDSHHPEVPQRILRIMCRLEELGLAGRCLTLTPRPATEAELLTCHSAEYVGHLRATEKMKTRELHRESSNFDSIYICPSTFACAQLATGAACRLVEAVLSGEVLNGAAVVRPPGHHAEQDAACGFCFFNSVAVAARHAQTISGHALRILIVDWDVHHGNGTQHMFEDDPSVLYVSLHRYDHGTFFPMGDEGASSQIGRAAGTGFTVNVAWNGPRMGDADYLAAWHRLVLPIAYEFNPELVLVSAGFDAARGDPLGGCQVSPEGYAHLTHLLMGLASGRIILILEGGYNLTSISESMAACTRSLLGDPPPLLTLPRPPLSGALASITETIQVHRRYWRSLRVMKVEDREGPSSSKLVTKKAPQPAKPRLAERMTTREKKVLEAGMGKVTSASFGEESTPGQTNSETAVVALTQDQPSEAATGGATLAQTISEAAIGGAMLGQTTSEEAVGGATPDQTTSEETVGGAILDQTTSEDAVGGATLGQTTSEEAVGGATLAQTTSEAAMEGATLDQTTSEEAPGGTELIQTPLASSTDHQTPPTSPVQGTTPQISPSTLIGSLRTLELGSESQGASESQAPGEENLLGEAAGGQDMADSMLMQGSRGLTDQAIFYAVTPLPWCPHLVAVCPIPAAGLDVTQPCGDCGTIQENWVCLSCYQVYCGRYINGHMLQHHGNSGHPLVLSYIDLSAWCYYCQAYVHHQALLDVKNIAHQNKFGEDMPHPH
Experiment: HDAC6 enzyme inhibitory assay (HDAC-Glo I/II Assay kit)
Format: biochemical
Conditions: wells without enzyme = 100% inhibition; for inhibition at 10 µM: read-out: HDAC6 inhibitory rate (%) (10 μM)
In short: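 Full-length GST-purified HDAC6 from Sf-9 cells preincubated with compound 60 min at room temperature in Tris-HCl pH 7.5 buffer with MgCl2, KCl, NaCl, glutathione, Tween-20. Substrate-developer reaction 20 min, luminescence read; no-enzyme wells set as 100% inhibition.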

| SMILES | inhibition at 10 µM | further results |
| --- | --- | --- |
| O=C1c2cc(-c3nnc(C(F)F)o3)ccc2CN1[C@H](c1cccnn1)[C@@H](O)c1ccc(Cl)cc1 (relative stereo) [Example 110, 2-[(1R*,2S)-2-(4-chlorophenyl)-2-hydroxy-1-(pyridazin-3-yl)ethyl]-6-[5-(difluoromethyl)-1,3,4-oxadiazol-2-yl]-2,3-dihydro-1H-isoindol-1-one] | 100% | – |
| O=C1c2cc(-c3nnc(C(F)F)o3)ccc2CN1[C@H](c1cccnn1)[C@@H](O)c1cccc(Cl)c1 (relative stereo) [Example 121, 2-[(1R*,2S)-2-(3-chlorophenyl)-2-hydroxy-1-(pyridazin-3-yl)ethyl]-6-[5-(difluoromethyl)-1,3,4-oxadiazol-2-yl]-2,3-dihydro-1H-isoindol-1-one] | 101% | – |
| O=C1c2cc(-c3nnc(C(F)F)o3)ccc2CN1[C@H](c1cccc(F)n1)[C@@H](O)c1ccc(F)cn1 (relative stereo) [Example 125, 6-[5-(difluoromethyl)-1,3,4-oxadiazol-2-yl]-2-[(1R*,2R)-2-(5-fluoropyridin-2-yl)-1-(6-fluoropyridin-2-yl)-2-hydroxyethyl]-2,3-dihydro-1H-isoindol-1-one] | 101% | – |
| O=C1c2cc(-c3nnc(C(F)F)o3)ccc2CN1[C@H](c1ccc(F)cc1F)[C@@H](O)c1ccc(F)cc1 (single isomer, unassigned) [Example 32, 6-[5-(difluoromethyl)-1,3,4-oxadiazol-2-yl]-2-[(1R*,2S*)-1-(2,4-difluorophenyl)-2-(4-fluorophenyl)-2-hydroxyethyl]-2,3-dihydro-1H-isoindol-1-one] | 99% | – |
| O=C1c2cc(-c3nnc(C(F)F)o3)ccc2CN1[C@H](c1ccc(F)cc1F)[C@@H](O)c1ccc(F)cc1 (single isomer, unassigned) [Example 33, 6-[5-(difluoromethyl)-1,3,4-oxadiazol-2-yl]-2-[(1R*,2S*)-1-(2,4-difluorophenyl)-2-(4-fluorophenyl)-2-hydroxyethyl]-2,3-dihydro-1H-isoindol-1-one] | – | HDAC6 inhibitory rate (%) (10 μM) (10 µM): 100% |
| O=C1c2cc(-c3nnc(C(F)F)o3)ccc2CN1[C@H](c1ccc(F)nc1)[C@@H](O)c1ccc(F)cc1 (single isomer, unassigned) [Example 34, 6-[5-(difluoromethyl)-1,3,4-oxadiazol-2-yl]-2-[(1R*,2S*)-2-(4-fluorophenyl)-1-(6-fluoropyridin-3-yl)-2-hydroxyethyl]-2,3-dihydro-1H-isoindol-1-one] | 100% | – |
| O=C1c2cc(-c3nnc(C(F)F)o3)ccc2CN1[C@H](c1ccc(F)nc1)[C@@H](O)c1ccc(F)cc1 (single isomer, unassigned) [Example 35, 6-[5-(difluoromethyl)-1,3,4-oxadiazol-2-yl]-2-[(1R*,2S*)-2-(4-fluorophenyl)-1-(6-fluoropyridin-3-yl)-2-hydroxyethyl]-2,3-dihydro-1H-isoindol-1-one] | – | HDAC6 inhibitory rate (%) (10 μM): 100% |
| O=C1c2cc(-c3nnc(C(F)F)o3)ccc2CN1[C@H](c1ccccn1)[C@@H](O)c1ccc(F)cc1 (single isomer, unassigned) [Example 36, 6-[5-(difluoromethyl)-1,3,4-oxadiazol-2-yl]-2-[(1R*,2S*)-2-(4-fluorophenyl)-2-hydroxy-1-(pyridin-2-yl)ethyl]-2,3-dihydro-1H-isoindol-1-one] | 101% | – |
| O=C1c2cc(-c3nnc(C(F)F)o3)ccc2CN1[C@H](c1ccccn1)[C@@H](O)c1ccc(F)cc1 (single isomer, unassigned) [Example 37, 6-[5-(difluoromethyl)-1,3,4-oxadiazol-2-yl]-2-[(1R*,2S*)-2-(4-fluorophenyl)-2-hydroxy-1-(pyridin-2-yl)ethyl]-2,3-dihydro-1H-isoindol-1-one] | – | HDAC6 inhibitory rate (%) (10 μM) (10 µM): 100% |
| O=C1c2cc(-c3nnc(C(F)F)o3)ccc2CN1[C@H](c1ccc(F)cc1)[C@@H](O)c1ccccc1 (single isomer, unassigned) [Example 45, 6-[5-(difluoromethyl)-1,3,4-oxadiazol-2-yl]-2-[(1R*,2S*)-1-(4-fluorophenyl)-2-hydroxy-2-phenylethyl]-2,3-dihydro-1H-isoindol-1-one] | 100% | – |
| O=C1c2cc(-c3nnc(C(F)F)o3)ccc2CN1[C@H](c1ccc(F)cc1)[C@@H](O)c1ccccc1 (single isomer, unassigned) [Example 46, 6-[5-(difluoromethyl)-1,3,4-oxadiazol-2-yl]-2-[(1R*,2S*)-1-(4-fluorophenyl)-2-hydroxy-2-phenylethyl]-2,3-dihydro-1H-isoindol-1-one] | – | HDAC6 inhibitory rate (%) (10 μM): 100% |
| O=C1c2cc(-c3nnc(C(F)F)o3)ccc2CN1[C@H](c1ccccc1)[C@@H](O)c1ccccn1 (single isomer, unassigned) [Example 47, 6-[5-(difluoromethyl)-1,3,4-oxadiazol-2-yl]-2-[(1R*,2R*)-2-hydroxy-1-phenyl-2-(pyridin-2-yl)ethyl]-2,3-dihydro-1H-isoindol-1-one] | 99% | – |
| O=C1c2cc(-c3nnc(C(F)F)o3)ccc2CN1[C@H](c1ccccc1)[C@@H](O)c1ccccn1 (single isomer, unassigned) [Example 48, 6-[5-(difluoromethyl)-1,3,4-oxadiazol-2-yl]-2-[(1R*,2R*)-2-hydroxy-1-phenyl-2-(pyridin-2-yl)ethyl]-2,3-dihydro-1H-isoindol-1-one] | – | HDAC6 inhibitory rate (%) (10 μM) (10 µM): 100% |
| O=C1c2cc(-c3nnc(C(F)F)o3)ccc2CN1[C@H](c1ccc(F)cc1)[C@@H](O)c1cccnc1 (single isomer, unassigned) [Example 49, 6-[5-(difluoromethyl)-1,3,4-oxadiazol-2-yl]-2-[(1R*,2S*)-1-(4-fluorophenyl)-2-hydroxy-2-(pyridin-3-yl)ethyl]-2,3-dihydro-1H-isoindol-1-one] | 99% | – |
| O=C1c2cc(-c3nnc(C(F)F)o3)ccc2CN1[C@H](c1ccc(F)c(F)c1)[C@@H](O)c1ccccn1 (single isomer, unassigned) [Example 50, 6-[5-(difluoromethyl)-1,3,4-oxadiazol-2-yl]-2-[(1R*,2R*)-1-(3,4-difluorophenyl)-2-hydroxy-2-(pyridin-2-yl)ethyl]-2,3-dihydro-1H-isoindol-1-one] | 99% | – |
| O=C1c2cc(-c3nnc(C(F)F)o3)ccc2CN1[C@H](c1ccc(F)c(F)c1)[C@@H](O)c1ccccn1 (single isomer, unassigned) [Example 51, 6-[5-(difluoromethyl)-1,3,4-oxadiazol-2-yl]-2-[(1R*,2R*)-1-(3,4-difluorophenyl)-2-hydroxy-2-(pyridin-2-yl)ethyl]-2,3-dihydro-1H-isoindol-1-one] | – | HDAC6 inhibitory rate (%) (10 μM): 99% |
| O=C1c2cc(-c3nnc(C(F)F)o3)ccc2CN1[C@H](c1ccc(F)cc1)[C@@H](O)c1cccnc1 (single isomer, unassigned) [Example 52, 6-[5-(difluoromethyl)-1,3,4-oxadiazol-2-yl]-2-[(1R*,2S*)-1-(4-fluorophenyl)-2-hydroxy-2-(pyridin-3-yl)ethyl]-2,3-dihydro-1H-isoindol-1-one] | – | HDAC6 inhibitory rate (%) (10 μM) (10 µM): 100% |
| O=C1c2cc(-c3nnc(C(F)F)o3)ccc2CN1[C@H](c1ccc(F)cc1)[C@@H](O)c1ccc(C(F)(F)F)nc1 (single isomer, unassigned) [Example 54, 6-[5-(difluoromethyl)-1,3,4-oxadiazol-2-yl]-2-{(1R*,2S*)-1-(4-fluorophenyl)-2-hydroxy-2-[6-(trifluoromethyl)pyridin-3-yl]ethyl}-2,3-dihydro-1H-isoindol-1-one] | 100% | – |
| O=C1c2cc(-c3nnc(C(F)F)o3)ccc2CN1[C@H](c1ccc(F)cn1)[C@@H](O)c1ccccn1 (single isomer, unassigned) [Example 59, 6-[5-(difluoromethyl)-1,3,4-oxadiazol-2-yl]-2-[(1R*,2R*)-1-(5-fluoropyridin-2-yl)-2-hydroxy-2-(pyridin-2-yl)ethyl]-2,3-dihydro-1H-isoindol-1-one] | 100% | – |
| O=C1c2cc(-c3nnc(C(F)F)o3)ccc2CN1[C@H](c1ccc(F)cn1)[C@@H](O)c1ccccn1 (single isomer, unassigned) [Example 60] | – | HDAC6 inhibitory rate (%) (10 μM) (10 µM): 99% |
